Each block holds one compound with its values, some of them ahead of it. The source made the active and inactive calls.
Columns and labels:
[1] = target: T1, Sentrin-specific protease 6 (Homo sapiens, UniProt Q9GZR1); assay: SAR Analysis of small molecule inhibitors of Sentrin-specific protease 6 (SENP6) using a Luminescent assay. [Related pubchem assays (depositor defined):AID2582, AID2599]; assay type: functional
T1 sequence (Q9GZR1 whole entry): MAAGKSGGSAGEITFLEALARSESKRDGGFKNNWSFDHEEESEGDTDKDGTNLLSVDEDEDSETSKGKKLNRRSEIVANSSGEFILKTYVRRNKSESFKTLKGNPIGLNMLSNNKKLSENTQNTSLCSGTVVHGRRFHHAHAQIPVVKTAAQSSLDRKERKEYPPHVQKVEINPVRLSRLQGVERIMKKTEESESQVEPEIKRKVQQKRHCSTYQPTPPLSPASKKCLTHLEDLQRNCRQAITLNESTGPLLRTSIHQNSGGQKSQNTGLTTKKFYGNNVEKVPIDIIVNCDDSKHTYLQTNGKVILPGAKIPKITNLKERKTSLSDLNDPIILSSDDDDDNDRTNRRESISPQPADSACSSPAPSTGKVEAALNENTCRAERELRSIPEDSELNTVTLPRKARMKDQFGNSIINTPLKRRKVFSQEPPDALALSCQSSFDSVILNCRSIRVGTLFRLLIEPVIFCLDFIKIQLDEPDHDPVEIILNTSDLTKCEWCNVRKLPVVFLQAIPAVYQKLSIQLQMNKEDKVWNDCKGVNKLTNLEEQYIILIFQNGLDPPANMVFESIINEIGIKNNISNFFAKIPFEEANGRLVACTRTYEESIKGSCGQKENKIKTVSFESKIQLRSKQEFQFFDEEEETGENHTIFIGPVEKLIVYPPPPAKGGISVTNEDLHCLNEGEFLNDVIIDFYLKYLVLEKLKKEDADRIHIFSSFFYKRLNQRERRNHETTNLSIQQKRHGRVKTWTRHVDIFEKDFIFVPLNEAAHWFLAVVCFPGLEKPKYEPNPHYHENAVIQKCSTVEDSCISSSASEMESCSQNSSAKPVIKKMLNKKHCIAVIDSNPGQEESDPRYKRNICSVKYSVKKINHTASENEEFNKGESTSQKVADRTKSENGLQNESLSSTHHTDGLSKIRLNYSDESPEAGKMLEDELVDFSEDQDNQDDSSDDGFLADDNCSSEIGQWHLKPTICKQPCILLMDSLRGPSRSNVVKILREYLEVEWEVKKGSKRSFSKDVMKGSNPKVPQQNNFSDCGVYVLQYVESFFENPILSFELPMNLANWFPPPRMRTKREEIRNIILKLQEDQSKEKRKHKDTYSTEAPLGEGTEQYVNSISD

Caspase-3 = target: T2, Caspase-3 (Homo sapiens, UniProt P42574); assay: SAR Analysis of small molecule inhibitors of Sentrin-specific proteases (SENPs) using a Caspase-3 Selectivity assay. [Related pubchem assays (depositor defined):AID2540, AID2599, AID434973, AID489001]; assay type: functional
T2 sequence (P42574 whole entry): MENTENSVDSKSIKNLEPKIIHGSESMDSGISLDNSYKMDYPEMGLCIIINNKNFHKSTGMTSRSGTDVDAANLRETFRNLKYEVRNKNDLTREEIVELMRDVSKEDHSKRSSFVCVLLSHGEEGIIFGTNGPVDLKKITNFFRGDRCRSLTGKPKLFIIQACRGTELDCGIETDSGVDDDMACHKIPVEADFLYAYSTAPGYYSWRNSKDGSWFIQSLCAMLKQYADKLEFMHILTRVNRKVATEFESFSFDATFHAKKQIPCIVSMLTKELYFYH

[2] = target: T3, Sentrin-specific protease 8 (Homo sapiens, UniProt Q96LD8); assay: inhibition of human SENP8 cleavage activity – biochemical, luminescence, SAR follow-up (AID 504501); assay type: functional
T3 sequence (Q96LD8 whole entry): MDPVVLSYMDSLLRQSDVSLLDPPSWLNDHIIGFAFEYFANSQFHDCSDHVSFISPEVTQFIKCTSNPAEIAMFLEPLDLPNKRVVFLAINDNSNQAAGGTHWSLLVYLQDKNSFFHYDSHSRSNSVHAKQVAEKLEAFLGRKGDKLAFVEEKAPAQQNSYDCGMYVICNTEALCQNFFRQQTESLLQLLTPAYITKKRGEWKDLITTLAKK

[3] = target: T4, Sentrin-specific protease 7 (Homo sapiens, UniProt Q9BQF6); assay: inhibition of human SENP7 cleavage activity – biochemical, luminescence, SAR follow-up (AID 504497); assay type: functional
T4 sequence (Q9BQF6 whole entry): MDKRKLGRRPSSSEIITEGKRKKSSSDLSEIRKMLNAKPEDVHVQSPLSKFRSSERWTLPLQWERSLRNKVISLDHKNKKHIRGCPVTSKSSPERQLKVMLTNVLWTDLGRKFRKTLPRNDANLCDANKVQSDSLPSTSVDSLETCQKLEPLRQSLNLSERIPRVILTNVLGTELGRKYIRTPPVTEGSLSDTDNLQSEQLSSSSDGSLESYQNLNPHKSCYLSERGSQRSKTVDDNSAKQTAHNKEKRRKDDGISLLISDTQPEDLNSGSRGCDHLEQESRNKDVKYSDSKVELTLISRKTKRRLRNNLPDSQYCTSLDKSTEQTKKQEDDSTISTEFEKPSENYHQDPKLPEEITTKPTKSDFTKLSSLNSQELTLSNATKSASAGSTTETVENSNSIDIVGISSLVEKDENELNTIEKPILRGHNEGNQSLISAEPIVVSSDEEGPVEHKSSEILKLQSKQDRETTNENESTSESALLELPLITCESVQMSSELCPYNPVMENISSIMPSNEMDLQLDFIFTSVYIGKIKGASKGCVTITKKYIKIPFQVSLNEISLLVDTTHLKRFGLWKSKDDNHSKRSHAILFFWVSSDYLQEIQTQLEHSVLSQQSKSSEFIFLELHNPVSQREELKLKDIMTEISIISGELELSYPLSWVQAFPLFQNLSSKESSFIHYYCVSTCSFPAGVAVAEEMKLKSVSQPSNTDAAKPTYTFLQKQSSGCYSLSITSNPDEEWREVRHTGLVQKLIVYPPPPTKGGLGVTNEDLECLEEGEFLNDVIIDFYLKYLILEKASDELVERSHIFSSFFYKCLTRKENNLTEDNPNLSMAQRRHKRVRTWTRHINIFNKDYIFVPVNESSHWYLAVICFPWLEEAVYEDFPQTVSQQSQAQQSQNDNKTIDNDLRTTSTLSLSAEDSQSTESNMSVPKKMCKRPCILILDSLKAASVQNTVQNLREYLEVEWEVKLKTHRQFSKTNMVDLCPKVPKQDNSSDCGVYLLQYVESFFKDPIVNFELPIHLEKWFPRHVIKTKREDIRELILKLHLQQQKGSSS

[4] = viability of uninfected HEp-2 cells – cell-based, HTS, cytotoxicity control for RSV inhibitor project, dose response (AID 2410); assay type: functional; conditions: human respiratory syncytial virus
CHO = CHO cell viability loss, potency – luminescence, cytotoxicity control for TLR9-MyD88 binding inhibitor project, dose response (AID 588339); assay type: functional, cell-based, hamster; conditions: Cricetulus griseus;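 further: CHO cells stably coexpressing TLR9 and MyD88 fusions from primary screen; compound exposure lasted 48 hours before viability readout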
[5] = viability of HCT116 lacking mutant beta-catenin – cell-based, human colon tumor, dose response (AID 1045); assay type: functional;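 further: HCT116 colon tumor cells with beta catenin knocked out; cells exposed to compound for 60 hours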
Beta Lactamase = Beta Lactamase (Pseudomonas aeruginosa, UniProt Q932Y6); assay: BLA reporter interference, concentration series – BLA reporter cells, FRET fluorescence, artefact control for TLR9-MyD88 binding inhibitor project, dose response (AID 588341); assay type: cell-based;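 further: cell based assay in CHO-K1 cells stably expressing beta-lactamase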
Sequence of Beta Lactamase (Q932Y6 whole entry): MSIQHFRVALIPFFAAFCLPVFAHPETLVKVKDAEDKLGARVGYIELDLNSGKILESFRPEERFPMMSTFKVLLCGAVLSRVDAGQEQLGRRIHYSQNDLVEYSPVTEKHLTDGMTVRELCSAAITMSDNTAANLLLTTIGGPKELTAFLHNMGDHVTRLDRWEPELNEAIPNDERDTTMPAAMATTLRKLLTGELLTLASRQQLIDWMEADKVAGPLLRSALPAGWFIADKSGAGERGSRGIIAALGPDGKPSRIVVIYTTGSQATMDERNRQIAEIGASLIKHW

[6] = viability of PTEN-deleted HCT116 cells – cell-based, HCT116 PTEN knockout, dose response (AID 1047); assay type: functional;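 further: HCT116 colon tumor cells with PTEN knocked out; cells exposed to compound for 60 hours before readout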
LIM domain kinase 1 = LIM domain kinase 1 (Homo sapiens, UniProt P53667); assay: Navigating the Kinome. Panel member name: LIMK1; assay type: functional
Sequence of LIM domain kinase 1 (P53667 whole entry, the tested form may be a part): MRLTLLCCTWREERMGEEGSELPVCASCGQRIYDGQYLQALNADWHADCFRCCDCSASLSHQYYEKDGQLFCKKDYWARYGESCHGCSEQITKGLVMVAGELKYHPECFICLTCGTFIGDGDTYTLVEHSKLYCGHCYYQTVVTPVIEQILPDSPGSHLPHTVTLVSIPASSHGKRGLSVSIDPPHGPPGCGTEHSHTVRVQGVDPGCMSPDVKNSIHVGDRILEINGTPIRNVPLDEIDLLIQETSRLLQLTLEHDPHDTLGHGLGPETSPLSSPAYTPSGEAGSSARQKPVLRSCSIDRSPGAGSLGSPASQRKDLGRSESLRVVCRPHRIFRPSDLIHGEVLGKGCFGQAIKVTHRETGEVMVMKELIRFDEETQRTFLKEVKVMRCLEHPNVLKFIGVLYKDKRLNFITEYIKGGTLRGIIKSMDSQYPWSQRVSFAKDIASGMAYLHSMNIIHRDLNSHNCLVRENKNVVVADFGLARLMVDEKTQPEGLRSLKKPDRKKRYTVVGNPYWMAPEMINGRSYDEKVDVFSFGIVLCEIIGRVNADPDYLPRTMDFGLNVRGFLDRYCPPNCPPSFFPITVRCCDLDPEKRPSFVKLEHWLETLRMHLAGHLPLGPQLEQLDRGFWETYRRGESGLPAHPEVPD

[7] = target: T5, Serine/threonine-protein kinase Chk1 (Homo sapiens, UniProt O14757); assay type: functional;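 further: measured as one member of a kinome-wide kinase profiling panel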
T5 sequence (O14757 whole entry): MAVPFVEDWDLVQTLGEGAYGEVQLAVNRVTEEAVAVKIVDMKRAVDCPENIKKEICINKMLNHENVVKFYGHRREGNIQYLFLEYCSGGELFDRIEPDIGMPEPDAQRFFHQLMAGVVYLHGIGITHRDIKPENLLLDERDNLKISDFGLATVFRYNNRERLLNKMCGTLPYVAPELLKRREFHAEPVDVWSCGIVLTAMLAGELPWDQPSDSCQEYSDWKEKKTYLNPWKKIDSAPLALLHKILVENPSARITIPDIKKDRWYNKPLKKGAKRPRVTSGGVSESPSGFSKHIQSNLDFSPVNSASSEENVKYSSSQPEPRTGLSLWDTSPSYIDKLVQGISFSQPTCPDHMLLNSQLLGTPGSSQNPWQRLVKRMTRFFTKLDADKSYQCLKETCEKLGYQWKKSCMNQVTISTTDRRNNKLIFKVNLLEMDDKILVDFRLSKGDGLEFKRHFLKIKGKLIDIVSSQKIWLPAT

[8] = target: Dual specificity protein kinase CLK4 (Homo sapiens, UniProt Q9HAZ1); assay type: functional
Sequence of Dual specificity protein kinase CLK4 (Q9HAZ1 whole entry): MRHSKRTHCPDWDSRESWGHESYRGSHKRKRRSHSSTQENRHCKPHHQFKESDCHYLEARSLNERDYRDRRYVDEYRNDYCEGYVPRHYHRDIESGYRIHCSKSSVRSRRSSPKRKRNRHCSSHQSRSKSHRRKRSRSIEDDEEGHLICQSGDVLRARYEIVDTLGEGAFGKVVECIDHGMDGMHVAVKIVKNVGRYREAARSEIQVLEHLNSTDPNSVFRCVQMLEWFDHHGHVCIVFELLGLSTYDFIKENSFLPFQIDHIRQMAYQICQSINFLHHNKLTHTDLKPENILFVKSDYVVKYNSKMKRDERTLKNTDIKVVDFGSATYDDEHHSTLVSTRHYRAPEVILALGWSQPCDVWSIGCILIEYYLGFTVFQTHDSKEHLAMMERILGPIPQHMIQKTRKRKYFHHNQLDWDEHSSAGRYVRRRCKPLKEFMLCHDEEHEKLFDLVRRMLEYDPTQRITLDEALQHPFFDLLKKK

[9] = target: Hepatocyte growth factor receptor (Homo sapiens, UniProt P08581); assay type: functional;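 further: kinase panel profiling across the kinome, with MET as the panel member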
Sequence of Hepatocyte growth factor receptor (P08581 whole entry): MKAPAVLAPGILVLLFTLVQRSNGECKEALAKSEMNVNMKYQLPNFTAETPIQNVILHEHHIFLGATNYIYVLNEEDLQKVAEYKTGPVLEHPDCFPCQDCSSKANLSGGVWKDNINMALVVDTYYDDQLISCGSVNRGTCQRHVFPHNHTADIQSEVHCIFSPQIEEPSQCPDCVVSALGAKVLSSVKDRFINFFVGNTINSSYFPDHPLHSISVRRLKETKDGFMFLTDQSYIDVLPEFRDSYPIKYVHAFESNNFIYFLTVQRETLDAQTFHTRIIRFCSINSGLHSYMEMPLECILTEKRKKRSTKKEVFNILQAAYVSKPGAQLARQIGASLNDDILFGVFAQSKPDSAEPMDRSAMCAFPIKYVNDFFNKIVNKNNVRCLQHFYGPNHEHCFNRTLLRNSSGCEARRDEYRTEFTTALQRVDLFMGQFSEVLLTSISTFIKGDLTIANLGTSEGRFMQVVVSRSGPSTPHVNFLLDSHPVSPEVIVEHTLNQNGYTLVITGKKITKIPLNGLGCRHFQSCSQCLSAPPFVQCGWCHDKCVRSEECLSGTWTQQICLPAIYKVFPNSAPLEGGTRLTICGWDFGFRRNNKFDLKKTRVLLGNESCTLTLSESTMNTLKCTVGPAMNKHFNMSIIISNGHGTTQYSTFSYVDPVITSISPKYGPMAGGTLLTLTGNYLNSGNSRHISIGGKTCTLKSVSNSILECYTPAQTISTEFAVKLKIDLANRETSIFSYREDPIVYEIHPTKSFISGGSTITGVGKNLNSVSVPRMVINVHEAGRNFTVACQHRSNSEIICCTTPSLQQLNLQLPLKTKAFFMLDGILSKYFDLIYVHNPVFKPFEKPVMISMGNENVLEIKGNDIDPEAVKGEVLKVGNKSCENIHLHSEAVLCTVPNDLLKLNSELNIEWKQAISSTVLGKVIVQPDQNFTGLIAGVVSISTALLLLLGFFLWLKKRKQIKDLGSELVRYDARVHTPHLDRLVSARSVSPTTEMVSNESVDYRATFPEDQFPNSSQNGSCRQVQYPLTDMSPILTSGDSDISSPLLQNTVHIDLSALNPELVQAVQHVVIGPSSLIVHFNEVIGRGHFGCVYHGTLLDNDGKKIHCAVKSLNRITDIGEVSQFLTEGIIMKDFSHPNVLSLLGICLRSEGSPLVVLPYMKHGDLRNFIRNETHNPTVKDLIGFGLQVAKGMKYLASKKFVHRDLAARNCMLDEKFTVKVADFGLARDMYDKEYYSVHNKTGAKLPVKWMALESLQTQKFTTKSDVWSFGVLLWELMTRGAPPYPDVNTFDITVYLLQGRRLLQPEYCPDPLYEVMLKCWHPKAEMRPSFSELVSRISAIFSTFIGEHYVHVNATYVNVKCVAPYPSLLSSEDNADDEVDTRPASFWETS

[10] = target: Dual specificity tyrosine-phosphorylation-regulated kinase 1B (Homo sapiens, UniProt Q9Y463); assay: Navigating the Kinome. Panel member name: DYRK1B; assay type: functional
Sequence of Dual specificity tyrosine-phosphorylation-regulated kinase 1B (Q9Y463 whole entry): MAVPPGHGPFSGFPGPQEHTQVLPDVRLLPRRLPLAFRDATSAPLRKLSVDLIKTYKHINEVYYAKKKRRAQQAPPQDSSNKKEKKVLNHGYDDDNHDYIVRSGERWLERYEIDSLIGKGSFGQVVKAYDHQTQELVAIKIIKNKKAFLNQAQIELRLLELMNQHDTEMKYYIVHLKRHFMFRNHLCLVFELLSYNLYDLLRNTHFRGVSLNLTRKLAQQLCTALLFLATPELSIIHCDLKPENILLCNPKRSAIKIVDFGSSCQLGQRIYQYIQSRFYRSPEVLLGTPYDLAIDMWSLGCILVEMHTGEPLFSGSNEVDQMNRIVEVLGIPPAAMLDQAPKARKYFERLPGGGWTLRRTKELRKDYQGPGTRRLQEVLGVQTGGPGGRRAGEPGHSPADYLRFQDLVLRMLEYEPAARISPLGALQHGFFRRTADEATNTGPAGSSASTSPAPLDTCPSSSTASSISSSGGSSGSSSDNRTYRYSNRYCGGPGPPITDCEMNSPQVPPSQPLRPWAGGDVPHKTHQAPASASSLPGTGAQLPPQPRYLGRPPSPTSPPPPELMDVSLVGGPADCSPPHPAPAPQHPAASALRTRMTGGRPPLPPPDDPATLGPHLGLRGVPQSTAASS

[11] = target: Dual specificity tyrosine-phosphorylation-regulated kinase 1A (Homo sapiens, UniProt Q13627); assay type: functional;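 further: measured against DYRK1A as one member of a broad kinome profiling panel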
[12] = target: Glycogen synthase kinase-3 beta (Homo sapiens, UniProt P49841); assay type: functional;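 further: value comes from a broad kinome profiling panel, with GSK3B as the panel member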
Sequence of Glycogen synthase kinase-3 beta (P49841 whole entry): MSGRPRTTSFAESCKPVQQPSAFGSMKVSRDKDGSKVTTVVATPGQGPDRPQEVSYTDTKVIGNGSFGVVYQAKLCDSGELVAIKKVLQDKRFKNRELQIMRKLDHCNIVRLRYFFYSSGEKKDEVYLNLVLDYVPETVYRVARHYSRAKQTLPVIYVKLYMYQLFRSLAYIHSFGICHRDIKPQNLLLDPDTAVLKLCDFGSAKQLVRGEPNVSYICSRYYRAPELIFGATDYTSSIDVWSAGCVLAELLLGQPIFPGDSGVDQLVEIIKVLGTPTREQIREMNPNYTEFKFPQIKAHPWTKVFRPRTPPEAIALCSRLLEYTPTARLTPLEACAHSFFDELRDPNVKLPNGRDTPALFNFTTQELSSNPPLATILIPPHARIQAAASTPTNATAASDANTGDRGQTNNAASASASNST

Vero = assay: viability of Vero cells under compound – cytotoxicity control for flavivirus capping enzyme inhibitors (AID 588742); assay type: functional; conditions: Chlorocebus sabaeus
Genome polyprotein = Genome polyprotein (dengue virus type 2, UniProt P29990); assay: flavivirus cap methylation enzyme inhibition – biochemical, confirmation dose response, primary screen (AID 588689); assay type: functional
[13] = target: Induced myeloid leukemia cell differentiation protein Mcl-1 (Homo sapiens, UniProt Q07820); assay type: functional
Sequence of Induced myeloid leukemia cell differentiation protein Mcl-1 (Q07820 whole entry): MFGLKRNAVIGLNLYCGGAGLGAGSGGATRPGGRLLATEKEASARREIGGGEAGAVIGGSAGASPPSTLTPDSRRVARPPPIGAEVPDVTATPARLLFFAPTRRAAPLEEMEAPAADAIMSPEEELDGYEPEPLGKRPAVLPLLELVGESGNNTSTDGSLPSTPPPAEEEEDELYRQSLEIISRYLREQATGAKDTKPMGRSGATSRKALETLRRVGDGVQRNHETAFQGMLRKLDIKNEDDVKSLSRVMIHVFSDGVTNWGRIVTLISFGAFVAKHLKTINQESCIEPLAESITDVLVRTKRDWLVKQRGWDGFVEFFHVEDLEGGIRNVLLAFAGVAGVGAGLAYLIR

IC50 [1]: > 99 µM (inactive)
IC50 (Caspase-3): > 99 µM (inactive)
IC50 [3]: > 99 µM (inactive)
SMILES: O=C(Nc1nc2ccc(Cl)cc2s1)c1nn(-c2ccccc2)ccc1=O
IC50 [2]: > 99 µM (inactive)

SMILES: COc1ccccc1NS(=O)(=O)c1cc([N+](=O)[O-])ccc1N/N=C/c1c[nH]c2ccccc12
CC50 [4]: 41.7 µM (active)
IC50 (CHO): 32 µM (inactive)
EC50 [5]: 21.8 µM (active)
IC50 (Beta Lactamase): 2.74 µM (active)
EC50 [6]: 21.9 µM (active)

Ki (LIM domain kinase 1): 15.8 µM (active)
Ki [7]: 15.8 µM (active)
Ki [8]: 12.6 µM (active)
Ki [9]: 79.4 µM (active)
Ki [10]: 63.1 µM (active)
Ki [11]: 25.1 µM (active)
Ki [12]: 79.4 µM (active)
SMILES: COC(=O)c1csc2ccc(=O)[nH]c12

IC50 (Genome polyprotein): > 100 µM (active)
IC50 [13]: 2.28 µM (active)
SMILES: COc1ccccc1NC1=C(NC(C)=O)C(=O)c2ccccc2C1=O
CC50 (Vero): > 40 µM (active)
